Measured values: the NIST ThermoML archive (doi:10.1016/j.fluid.2017.09.014)
Numbers after ± are expanded uncertainties.

Assay: xn = mol fraction of the nth substance listed
Conditions: Vibrating tube method

O=S=O [sulfur dioxide] + O=C=O
Conditions | mass density [kg/m3]
298.1 K, 34441 kPa, Liquid, x2 = 0.9478 | 1013.3 ± 0.6
298.1 K, 35077 kPa, Liquid, x2 = 0.9478 | 1015.5 ± 0.4
298.1 K, 35971 kPa, Liquid, x2 = 0.9478 | 1018.4 ± 0.4
298.1 K, 36493 kPa, Liquid, x2 = 0.9478 | 1020.2 ± 0.6
298.1 K, 37078 kPa, Liquid, x2 = 0.9478 | 1022 ± 0.4
298.11 K, 7503 kPa, Liquid, x2 = 0.9478 | 829.8 ± 1.6
298.11 K, 8006 kPa, Liquid, x2 = 0.9478 | 838.7 ± 1.6
298.11 K, 8501 kPa, Liquid, x2 = 0.9478 | 846.7 ± 1.4
298.11 K, 10505 kPa, Liquid, x2 = 0.9478 | 872.1 ± 1.2
298.11 K, 11004 kPa, Liquid, x2 = 0.9478 | 877.7 ± 1.2
298.11 K, 13010 kPa, Liquid, x2 = 0.9478 | 897.8 ± 1
298.11 K, 13500 kPa, Liquid, x2 = 0.9478 | 902.3 ± 1
298.11 K, 15011 kPa, Liquid, x2 = 0.9478 | 915.2 ± 0.8
298.11 K, 15500 kPa, Liquid, x2 = 0.9478 | 919.1 ± 0.8
298.11 K, 16016 kPa, Liquid, x2 = 0.9478 | 923 ± 0.8
298.11 K, 16534 kPa, Liquid, x2 = 0.9478 | 926.8 ± 0.8
298.11 K, 17024 kPa, Liquid, x2 = 0.9478 | 930.2 ± 0.8
298.11 K, 17492 kPa, Liquid, x2 = 0.9478 | 933.3 ± 0.8
298.11 K, 17978 kPa, Liquid, x2 = 0.9478 | 936.5 ± 0.8
298.11 K, 18527 kPa, Liquid, x2 = 0.9478 | 939.8 ± 0.8
298.11 K, 19025 kPa, Liquid, x2 = 0.9478 | 942.9 ± 0.8
298.11 K, 19477 kPa, Liquid, x2 = 0.9478 | 945.6 ± 0.8
298.11 K, 20051 kPa, Liquid, x2 = 0.9478 | 948.9 ± 0.8
298.11 K, 20492 kPa, Liquid, x2 = 0.9478 | 951.5 ± 0.8
298.11 K, 21501 kPa, Liquid, x2 = 0.9478 | 957 ± 0.6
298.11 K, 23041 kPa, Liquid, x2 = 0.9478 | 965.2 ± 0.6
298.11 K, 28987 kPa, Liquid, x2 = 0.9478 | 993.1 ± 0.6
298.11 K, 29543 kPa, Liquid, x2 = 0.9478 | 994.8 ± 0.6
298.11 K, 30013 kPa, Liquid, x2 = 0.9478 | 996.8 ± 0.6
298.11 K, 30505 kPa, Liquid, x2 = 0.9478 | 998.9 ± 0.6
298.11 K, 30997 kPa, Liquid, x2 = 0.9478 | 1000.7 ± 0.4
298.11 K, 31516 kPa, Liquid, x2 = 0.9478 | 1002.6 ± 0.4
298.11 K, 33949 kPa, Liquid, x2 = 0.9478 | 1011.6 ± 0.4
298.11 K, 35494 kPa, Liquid, x2 = 0.9478 | 1016.9 ± 0.4
298.11 K, 37574 kPa, Liquid, x2 = 0.9478 | 1023.6 ± 0.4
298.11 K, 37960 kPa, Liquid, x2 = 0.9478 | 1024.8 ± 0.4
298.11 K, 38545 kPa, Liquid, x2 = 0.9478 | 1026.6 ± 0.6
298.11 K, 38913 kPa, Liquid, x2 = 0.9478 | 1027.8 ± 0.6
298.11 K, 39519 kPa, Liquid, x2 = 0.9478 | 1029.5 ± 0.4
298.11 K, 40060 kPa, Liquid, x2 = 0.9478 | 1031.1 ± 0.6
298.12 K, 9508 kPa, Liquid, x2 = 0.9478 | 860.5 ± 1.2
298.12 K, 10039 kPa, Liquid, x2 = 0.9478 | 866.6 ± 1.2
298.12 K, 11504 kPa, Liquid, x2 = 0.9478 | 882.9 ± 1
298.12 K, 12000 kPa, Liquid, x2 = 0.9478 | 887.9 ± 1
298.12 K, 12503 kPa, Liquid, x2 = 0.9478 | 892.9 ± 1
298.12 K, 14006 kPa, Liquid, x2 = 0.9478 | 906.7 ± 1
298.12 K, 14500 kPa, Liquid, x2 = 0.9478 | 910.9 ± 1
298.12 K, 40411 kPa, Liquid, x2 = 0.9478 | 1032.1 ± 0.4
322.39 K, 392 kPa, Gas, x2 = 0.9503 | 7 ± 0.2
322.39 K, 1252 kPa, Gas, x2 = 0.9503 | 22.2 ± 0.2
322.39 K, 1707 kPa, Gas, x2 = 0.9503 | 31.7 ± 0.2
322.39 K, 2008 kPa, Gas, x2 = 0.9503 | 37 ± 0.2
322.39 K, 3512 kPa, Gas, x2 = 0.9503 | 70.9 ± 0.2
322.39 K, 4009 kPa, Gas, x2 = 0.9503 | 82.8 ± 0.4
322.39 K, 4519 kPa, Gas, x2 = 0.9503 | 96.9 ± 0.4
322.39 K, 5017 kPa, Gas, x2 = 0.9503 | 111.5 ± 0.4
322.39 K, 5528 kPa, Gas, x2 = 0.9503 | 127.9 ± 0.4
322.39 K, 6019 kPa, Gas, x2 = 0.9503 | 145.7 ± 0.4
322.39 K, 7009 kPa, Fluid (supercritical or subcritical phases), x2 = 0.9503 | 189.5 ± 0.8
322.39 K, 7504 kPa, Fluid (supercritical or subcritical phases), x2 = 0.9503 | 218.4 ± 1
322.4 K, 749 kPa, Gas, x2 = 0.9503 | 13.6 ± 0.2
322.4 K, 1002 kPa, Gas, x2 = 0.9503 | 17.9 ± 0.2
322.4 K, 1509 kPa, Gas, x2 = 0.9503 | 27.5 ± 0.2
322.4 K, 2511 kPa, Gas, x2 = 0.9503 | 48.1 ± 0.2
322.4 K, 3008 kPa, Gas, x2 = 0.9503 | 58.8 ± 0.2
322.41 K, 6514 kPa, Fluid (supercritical or subcritical phases), x2 = 0.9503 | 166.3 ± 0.6
322.41 K, 8037 kPa, Fluid (supercritical or subcritical phases), x2 = 0.9503 | 254.6 ± 1.5
322.41 K, 8521 kPa, Fluid (supercritical or subcritical phases), x2 = 0.9503 | 307.2 ± 2.3
322.41 K, 9006 kPa, Fluid (supercritical or subcritical phases), x2 = 0.9503 | 371 ± 3.9
322.45 K, 9501 kPa, Fluid (supercritical or subcritical phases), x2 = 0.9503 | 460.8 ± 5.1
322.46 K, 9992 kPa, Fluid (supercritical or subcritical phases), x2 = 0.9503 | 538 ± 4.1
322.46 K, 30511 kPa, Fluid (supercritical or subcritical phases), x2 = 0.9503 | 905.8 ± 0.6
322.46 K, 34988 kPa, Fluid (supercritical or subcritical phases), x2 = 0.9503 | 930.2 ± 0.6
322.46 K, 35500 kPa, Fluid (supercritical or subcritical phases), x2 = 0.9503 | 933 ± 0.6
322.46 K, 36061 kPa, Fluid (supercritical or subcritical phases), x2 = 0.9503 | 935.4 ± 0.6
322.46 K, 36509 kPa, Fluid (supercritical or subcritical phases), x2 = 0.9503 | 937.7 ± 0.6
322.46 K, 37005 kPa, Fluid (supercritical or subcritical phases), x2 = 0.9503 | 940.1 ± 0.6
322.46 K, 37561 kPa, Fluid (supercritical or subcritical phases), x2 = 0.9503 | 942.4 ± 0.6
322.47 K, 10501 kPa, Fluid (supercritical or subcritical phases), x2 = 0.9503 | 585 ± 5.5
322.47 K, 29929 kPa, Fluid (supercritical or subcritical phases), x2 = 0.9503 | 902.4 ± 0.6
322.47 K, 31027 kPa, Fluid (supercritical or subcritical phases), x2 = 0.9503 | 908.9 ± 0.6
322.47 K, 31517 kPa, Fluid (supercritical or subcritical phases), x2 = 0.9503 | 912 ± 0.6
322.47 K, 32536 kPa, Fluid (supercritical or subcritical phases), x2 = 0.9503 | 917.5 ± 0.6
322.47 K, 33070 kPa, Fluid (supercritical or subcritical phases), x2 = 0.9503 | 920.6 ± 0.6
322.47 K, 33539 kPa, Fluid (supercritical or subcritical phases), x2 = 0.9503 | 923.2 ± 0.6
322.47 K, 34062 kPa, Fluid (supercritical or subcritical phases), x2 = 0.9503 | 925.5 ± 0.6
322.47 K, 34511 kPa, Fluid (supercritical or subcritical phases), x2 = 0.9503 | 928 ± 0.6
322.47 K, 38091 kPa, Fluid (supercritical or subcritical phases), x2 = 0.9503 | 945 ± 0.6
322.47 K, 38434 kPa, Fluid (supercritical or subcritical phases), x2 = 0.9503 | 946.6 ± 0.6
322.47 K, 39200 kPa, Fluid (supercritical or subcritical phases), x2 = 0.9503 | 950 ± 0.6
322.47 K, 40947 kPa, Fluid (supercritical or subcritical phases), x2 = 0.9503 | 956.3 ± 0.6
322.48 K, 20496 kPa, Fluid (supercritical or subcritical phases), x2 = 0.9503 | 829.2 ± 1.1
322.48 K, 23049 kPa, Fluid (supercritical or subcritical phases), x2 = 0.9503 | 853.3 ± 0.9
322.48 K, 25500 kPa, Fluid (supercritical or subcritical phases), x2 = 0.9503 | 871.4 ± 0.8
322.48 K, 27026 kPa, Fluid (supercritical or subcritical phases), x2 = 0.9503 | 882.9 ± 0.8
322.48 K, 28501 kPa, Fluid (supercritical or subcritical phases), x2 = 0.9503 | 892.7 ± 0.8
322.48 K, 32039 kPa, Fluid (supercritical or subcritical phases), x2 = 0.9503 | 914.6 ± 0.6
322.48 K, 39641 kPa, Fluid (supercritical or subcritical phases), x2 = 0.9503 | 951.7 ± 0.6
322.48 K, 40153 kPa, Fluid (supercritical or subcritical phases), x2 = 0.9503 | 953.9 ± 0.6
322.48 K, 40902 kPa, Fluid (supercritical or subcritical phases), x2 = 0.9503 | 956.7 ± 0.6
322.49 K, 11003 kPa, Fluid (supercritical or subcritical phases), x2 = 0.9503 | 621.1 ± 4.3
322.49 K, 18008 kPa, Fluid (supercritical or subcritical phases), x2 = 0.9503 | 800.3 ± 1.3
322.49 K, 19008 kPa, Fluid (supercritical or subcritical phases), x2 = 0.9503 | 812.8 ± 1.1
322.49 K, 20012 kPa, Fluid (supercritical or subcritical phases), x2 = 0.9503 | 824.3 ± 1.1
322.49 K, 21007 kPa, Fluid (supercritical or subcritical phases), x2 = 0.9503 | 834.7 ± 1.1
322.49 K, 21533 kPa, Fluid (supercritical or subcritical phases), x2 = 0.9503 | 839.7 ± 1.1
322.49 K, 22009 kPa, Fluid (supercritical or subcritical phases), x2 = 0.9503 | 843.9 ± 0.9
322.49 K, 22496 kPa, Fluid (supercritical or subcritical phases), x2 = 0.9503 | 848.2 ± 0.9
322.49 K, 23500 kPa, Fluid (supercritical or subcritical phases), x2 = 0.9503 | 856.5 ± 0.9
322.49 K, 24003 kPa, Fluid (supercritical or subcritical phases), x2 = 0.9503 | 860.4 ± 0.9
